From the supplement of paper PMC6045584
± gives the standard deviation of the averaged measurements.

Assays:
[1] = compound: COCC[n+]1c2c(n(Cc3cnccn3)c1C)C(=O)c1ccccc1C2=O [YM155]; test: surviving fraction relative to DMSO-only wells; higher = less growth inhibition; settings: exposure time: 5 days
In short: (§1)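 Tumour cell lines in log phase were plated in 384-well plates at 250–500 cells per well, then, after 24 hours, exposed continuously for five days to inhibitors at 0.5, 1, 5, 10, 50, 100, 500 and 1000 nM. Viability came from CellTiter-Glo luminescence, and surviving fraction is that signal normalised to the median of DMSO-only wells. Plates were read after 10 minutes at room temperature, and each line, screened three times, was kept only when replicate Pearson r was >0.7 and median Z' was >0.3.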

[2] = compound: CC[C@@]1(O)C(=O)OCc2c1cc1n(c2=O)Cc2cc3ccccc3nc2-1 [CAMPTOTHECIN]; test: as above; settings: exposure time: 5 days
In short: as §1

Test System | surviving fraction ([1]; 0.5 nM) | surviving fraction ([1]; 1 nM) | surviving fraction ([1]; 5 nM) | surviving fraction ([1]; 10 nM) | surviving fraction ([1]; 50 nM) | surviving fraction ([1]; 100 nM) | surviving fraction ([1]; 500 nM) | surviving fraction ([1]; 1000 nM) | surviving fraction ([2]; 0.5 nM) | surviving fraction ([2]; 1 nM) | surviving fraction ([2]; 5 nM) | surviving fraction ([2]; 10 nM) | surviving fraction ([2]; 50 nM) | surviving fraction ([2]; 100 nM) | surviving fraction ([2]; 500 nM) | surviving fraction ([2]; 1000 nM)
LM7 BONE | 0.943 ± 0.029 | 0.889 ± 0.053 | 0.433 ± 0.018 | 0.201 ± 0.019 | 0.039 ± 0.0056 | 0.0237 ± 0.00058 | 0.0197 ± 0.00058 | 0.025 ± 0.0017 | 0.73 ± 0.032 | 0.691 ± 0.08 | 0.422 ± 0.0056 | 0.232 ± 0.015 | 0.145 ± 0.018 | 0.0813 ± 0.0095 | 0.024 ± 0.0035 | 0.0243 ± 0.00058
MCF7 BREAST | 0.853 ± 0.076 | 0.883 ± 0.018 | 0.679 ± 0.063 | 0.368 ± 0.033 | 0.0596 ± 0.0041 | 0.043 ± 0.003 | 0.0207 ± 0.00033 | 0.0226 ± 0.0014 | 0.731 ± 0.032 | 0.824 ± 0.025 | 0.696 ± 0.079 | 0.556 ± 0.01 | 0.39 ± 0.0082 | 0.354 ± 0.011 | 0.0642 ± 0.0025 | 0.0648 ± 0.0052
MDAMB157 BREAST | 0.958 ± 0.024 | 1.02 ± 0.092 | 0.77 ± 0.037 | 0.799 ± 0.039 | 0.0573 ± 0.024 | 0.031 ± 0.003 | 0.0297 ± 0.0047 | 0.039 ± 0.0046 | 0.857 ± 0.063 | 0.911 ± 0.034 | 0.674 ± 0.061 | 0.319 ± 0.058 | 0.26 ± 0.0076 | 0.247 ± 0.019 | 0.135 ± 0.0051 | 0.118 ± 0.014
HELA CERVIX | 0.9905 ± 0.0069 | 0.966 ± 0.06 | 0.487 ± 0.0092 | 0.23 ± 0.0095 | 0.0242 ± 0.00076 | 0.021 ± 0.0013 | 0.0187 ± 0.00058 | 0.0228 ± 0.00076 | 0.934 ± 0.062 | 0.937 ± 0.044 | 0.967 ± 0.04 | 1.06 ± 0.014 | 0.253 ± 0.019 | 0.373 ± 0.02 | 0.0667 ± 0.0072 | 0.0348 ± 0.0013
143B BONE | 0.89 ± 0.082 | 0.987 ± 0.027 | 0.431 | 0.246 ± 0.042 | 0.0735 ± 0.0064 | 0.0375 ± 0.0021 | 0.022 ± 0.0014 | 0.0265 ± 0.00071 | 0.911 ± 0.076 | 0.9815 ± 0.00071 | 0.947 ± 0.025 | 0.83 ± 0.07 | 0.12 ± 0.005 | 0.0595 ± 0.0064 | 0.021 | 0.0245 ± 0.00071
CAL72 BONE | 1.05 ± 0.081 | 1.01 ± 0.097 | 0.347 ± 0.082 | 0.202 ± 0.034 | 0.058 ± 0.005 | 0.0473 ± 0.0047 | 0.0423 ± 0.0029 | 0.054 ± 0.0044 | 0.985 ± 0.029 | 0.991 ± 0.021 | 0.955 ± 0.034 | 0.762 ± 0.12 | 0.18 ± 0.022 | 0.118 ± 0.011 | 0.0517 ± 0.0015 | 0.0597 ± 0.0011
NOS1 BONE | 1.4 ± 0.44 | 1.03 ± 0.084 | 0.316 ± 0.034 | 0.17 ± 0.025 | 0.0643 ± 0.0076 | 0.048 ± 0.0062 | 0.0337 ± 0.0058 | 0.0323 ± 0.0025 | 0.833 ± 0.15 | 0.867 ± 0.02 | 0.663 ± 0.067 | 0.494 ± 0.059 | 0.636 ± 0.037 | 0.552 ± 0.036 | 0.392 ± 0.039 | 0.337 ± 0.026
VP229 BREAST | 1.04 ± 0.023 | 1.03 ± 0.18 | 0.903 ± 0.17 | 0.874 ± 0.081 | 0.265 ± 0.085 | 0.137 ± 0.0015 | 0.046 ± 0.01 | 0.042 ± 0.007 | 0.862 ± 0.018 | 0.912 ± 0.14 | 0.794 ± 0.17 | 0.662 ± 0.14 | 0.569 ± 0.037 | 0.348 ± 0.084 | 0.0443 ± 0.01 | 0.0333 ± 0.0031
PCI30 HEADNECK | 0.933 ± 0.064 | 0.84 ± 0.075 | 0.793 ± 0.021 | 0.491 ± 0.017 | 0.04 ± 0.0027 | 0.024 ± 0.0017 | 0.021 ± 0.0017 | 0.0233 ± 0.00058 | 0.908 ± 0.043 | 0.912 ± 0.056 | 0.857 ± 0.024 | 0.497 ± 0.026 | 0.437 ± 0.034 | 0.487 ± 0.027 | 0.356 ± 0.015 | 0.264 ± 0.015
LNCAP PROSTATE | 0.92 ± 0.085 | 0.943 ± 0.033 | 0.87 ± 0.097 | 0.978 ± 0.1 | 0.227 ± 0.032 | 0.069 ± 0.0044 | 0.0267 ± 0.0055 | 0.0267 ± 0.0015 | 0.98 ± 0.035 | 0.802 ± 0.047 | 0.254 ± 0.017 | 0.164 ± 0.01 | 0.0637 ± 0.0064 | 0.0507 ± 0.0067 | 0.023 ± 0.0035 | 0.0203 ± 0.0011
HCC1806 BREAST | 1.04 ± 0.077 | 1.08 ± 0.15 | 0.308 ± 0.016 | 0.284 ± 0.01 | 0.064 ± 0.0027 | 0.05 ± 0.0044 | 0.024 | 0.0257 ± 0.0015 | 0.717 ± 0.092 | 0.661 ± 0.046 | 0.269 ± 0.054 | 0.128 ± 0.015 | 0.074 ± 0.0056 | 0.044 ± 0.0017 | 0.0193 ± 0.00058 | 0.0223 ± 0.00058
SCC003 HEADNECK | 1.072 ± 0.0061 | 1.02 ± 0.071 | 0.82 ± 0.12 | 0.502 ± 0.14 | 0.086 ± 0.0066 | 0.052 ± 0.0046 | 0.024 | 0.025 ± 0.0017 | 0.817 ± 0.034 | 0.868 ± 0.085 | 0.849 ± 0.065 | 0.786 ± 0.094 | 0.361 ± 0.052 | 0.218 ± 0.029 | 0.07 ± 0.0061 | 0.054 ± 0.004
SJSA1 BONE | 1 ± 0.059 | 1.6 ± 0.045 | 1.46 ± 0.018 | 1.59 ± 0.028 | 1.7 ± 0.11 | 1.7 ± 0.074 | 1.6 ± 0.15 | 1.53 ± 0.16 | 1.18 ± 0.043 | 1.2 ± 0.06 | 1.01 ± 0.15 | 1.2 ± 0.017 | 1.25 ± 0.084 | 1.11 ± 0.093 | 1.14 ± 0.24 | 1.18 ± 0.083
SUM149.B1*.S BREAST | 0.847 ± 0.051 | 1.02 ± 0.068 | 0.903 ± 0.068 | 0.583 ± 0.058 | 0.0738 ± 0.0063 | 0.0278 ± 0.0019 | 0.0225 ± 0.00087 | 0.0277 ± 0.0011 | 0.467 ± 0.023 | 0.853 ± 0.024 | 0.692 ± 0.075 | 0.301 ± 0.021 | 0.0407 ± 0.0027 | 0.0422 ± 0.0024 | 0.0262 ± 0.0016 | 0.0295
SG31 HEADNECK | 1.01 ± 0.095 | 1.07 ± 0.074 | 0.883 ± 0.062 | 0.893 ± 0.11 | 0.391 ± 0.13 | 0.291 ± 0.15 | 0.0993 ± 0.037 | 0.104 ± 0.064 | 0.444 ± 0.03 | 0.911 ± 0.064 | 0.607 ± 0.074 | 0.715 ± 0.1 | 0.376 ± 0.021 | 0.37 ± 0.049 | 0.189 ± 0.017 | 0.133 ± 0.018
SAOS2 BONE | 1.16 ± 0.021 | 1.1 ± 0.097 | 0.39 ± 0.035 | 0.237 ± 0.0095 | 0.053 ± 0.0069 | 0.0327 ± 0.006 | 0.0223 ± 0.00058 | 0.0293 ± 0.00058 | 0.794 ± 0.046 | 0.829 ± 0.024 | 0.677 ± 0.055 | 0.415 ± 0.018 | 0.129 ± 0.006 | 0.059 ± 0.005 | 0.0293 ± 0.0032 | 0.0267 ± 0.00058
